Source: patent US9546179B2, “Heterocycle amido alkyloxy substituted quinazoline derivative and use thereof” (priority 2011, dated 2017)

Target: T1, receptor tyrosine kinase EGFR (Homo sapiens, UniProt P00533)
T1 construct: purchased Shanghai 3bio Technology Co., Ltd. Lot No. 4018780925
Experiment: Inhibitory effect on receptor tyrosine kinase EGFR (ELISA, Poly(Glu, Tyr)4:1, PY99 antibody)
Format: biochemical
Settings: ATP 4 μM, 1 hour at 37° C.
Protocol: Poly(Glu, Tyr)4:1 was diluted into 100 μg/ml by PBS without potassium. Enzyme label plate was coated with 37 μl/well at 37° C. overnight,
The liquid in the wells was removed. The plate was rinsed by T-PBS for 5 minutes, and dried at 37° C. after repeated 3 times.
The testing sample was diluted to the concentration concerned by reaction buffer solution, and added into the wells of the coated enzyme label plate. The concentration diluted should realize 1.0000 μg/ml, 0.1250 μg/ml, 0.0156 μg/ml, 0.00195 μg/ml and 0.00024 μg/ml in the 100 μl reaction.
Adding in ATP solution (4 μM of final concentration) diluted by reaction buffer solution,
Finally, the tyrosine kinase diluted by reaction buffer solution was added, and forming the reaction with 100 μl total volume.
Meanwhile, negative control wells and enzyme-free control wells were prepared. The reaction was kept in the dark wet box for 1 hour at 37° C. The plate was rinsed by T-PBS for three times after the reaction ended, and blocked by 1% BSA […] for 30 min, and then, PY99 antibody (1:1000 diluted by 0.05% PBST with 1% BSA) was added in 100 μl/well. After incubated at 37° C. for 30 minutes, the plate was rinsed by T-PBS for three times, and the goat anti-mouse IgG marked with HRP (1 mg/ml 1:1000 diluted by 0.05% PBST with 1% BSA) was then added in 100 μl/well. After incubated at 37° C. for 30 minutes, the plate was rinsed by T-PBS for three times.
Colorimetric solution OPD was added in 100 μl/well for 20 minutes' reaction in the dark side at the room temperature. Colorimetric substrate solution OPD was the solution of 0.1 mol/L citric acid-disodium hydrogen phosphate buffer (pH 5.0) with 20 mmol/L OPD and 12 mmol/L H2O2 (freshly prepared when using).
50 μl of 2M H2SO4 (2 mol/L sulfuric acid containing 0.1 mol/L sodium sulfate) was added in to terminate the reaction, and the A492 value was read with adjustable wavelength micro late enzyme-labeling instrument VERSAmax.
The inhibition rate of samples is calculated by the following formula: […]

T1 sequence (P00533 25-1210): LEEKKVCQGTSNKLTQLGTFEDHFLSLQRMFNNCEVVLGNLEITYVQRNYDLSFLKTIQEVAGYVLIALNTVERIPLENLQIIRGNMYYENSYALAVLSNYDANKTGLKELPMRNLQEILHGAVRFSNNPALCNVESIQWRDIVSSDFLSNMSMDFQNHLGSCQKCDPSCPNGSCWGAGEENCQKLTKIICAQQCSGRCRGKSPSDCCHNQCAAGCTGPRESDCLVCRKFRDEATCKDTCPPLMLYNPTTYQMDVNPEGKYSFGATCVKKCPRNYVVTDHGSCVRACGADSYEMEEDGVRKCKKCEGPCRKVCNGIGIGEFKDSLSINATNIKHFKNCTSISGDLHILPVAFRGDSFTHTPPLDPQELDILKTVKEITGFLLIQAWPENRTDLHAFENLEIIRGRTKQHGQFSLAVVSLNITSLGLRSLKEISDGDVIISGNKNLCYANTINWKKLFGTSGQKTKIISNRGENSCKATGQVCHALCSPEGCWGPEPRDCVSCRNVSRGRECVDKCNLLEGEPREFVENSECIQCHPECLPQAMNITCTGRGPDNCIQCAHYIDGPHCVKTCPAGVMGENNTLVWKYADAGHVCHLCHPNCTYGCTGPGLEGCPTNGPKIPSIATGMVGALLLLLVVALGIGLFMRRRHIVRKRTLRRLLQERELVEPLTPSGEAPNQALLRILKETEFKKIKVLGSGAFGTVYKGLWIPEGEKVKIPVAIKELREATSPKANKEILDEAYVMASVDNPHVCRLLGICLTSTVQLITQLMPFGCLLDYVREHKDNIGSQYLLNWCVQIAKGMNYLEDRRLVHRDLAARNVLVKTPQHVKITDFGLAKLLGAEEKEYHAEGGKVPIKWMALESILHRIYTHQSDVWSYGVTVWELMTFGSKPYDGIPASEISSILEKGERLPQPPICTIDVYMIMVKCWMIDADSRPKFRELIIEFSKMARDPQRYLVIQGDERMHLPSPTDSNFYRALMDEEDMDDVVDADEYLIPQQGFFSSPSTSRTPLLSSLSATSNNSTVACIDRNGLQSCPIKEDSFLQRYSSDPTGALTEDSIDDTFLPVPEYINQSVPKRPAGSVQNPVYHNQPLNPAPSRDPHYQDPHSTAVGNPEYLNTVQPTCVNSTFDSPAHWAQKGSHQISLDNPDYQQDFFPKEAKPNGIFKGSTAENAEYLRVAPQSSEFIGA

IC50 | Compound
0.1 to 10 nM | C#Cc1cccc(Nc2ncnc3cc(OC)c(OCCCN4CC[C@H]5OCC[C@H]54)cc23)c1 (relative stereo) [Example 50, 4-(3′-ethynylphenylamino)-6-[3-(cis-hexahydrofuro[3,2-b]pyrrole-4-yl)-propoxy]-7-methoxyquinazoline]
> 1000 nM | COc1cc2ncnc(Nc3ccc(F)c(Cl)c3)c2cc1OCCN1CC[C@H]2OCC[C@H]21 (relative stereo) [Example 54]
10 to 100 nM | COc1cc2ncnc(Nc3ccc(F)c(Cl)c3)c2cc1OCCCN1CC[C@H]2OCC[C@H]21 (relative stereo) [Example 78, 4-(3′-chloro-4′-fluorophenylamino)-6-[3-(cis-hexahydrofuro[3,2-b]pyrrole-4-yl)-propoxy]-7-methoxyquinazoline]
0.1 to 10 nM | COc1cc2ncnc(Nc3cc(Cl)ccc3F)c2cc1OCCCN1CC2(COC2)C1 [Example 14, 4-(5′-chloro-2′-fluorophenylamino)-6-[3-(2-oxa-6-azaspiro[3.3]heptane-6-yl)-propoxy]-7-methoxyquinazoline]
10 to 100 nM | COc1cc2ncnc(Nc3cc(Cl)ccc3F)c2cc1OCCCN1CCC2(CCOC2)C1 (centres unmarked) [Example 15, 4-(5′-chloro-2′-fluorophenylamino)-6-[3-(2-oxa-7-azaspiro[4.4]nonane-7-yl)-propoxy]-7-methoxyquinazoline]
10 to 100 nM | COc1cc2ncnc(Nc3cc(Cl)ccc3F)c2cc1OCCCN1C2CCC1COC2 [Example 16, 4-(5′-chloro-2′-fluorophenylamino)-6-[3-(3-oxa-8-azabicyclo[3.2.1]octane-8-yl)-propoxy]-7-methoxyquinazolin]
10 to 100 nM | COc1cc2ncnc(Nc3cc(Cl)ccc3F)c2cc1OCCCN1CC2(CCOCC2)C1 [Example 18, 4-(5′-chloro-2′-fluorophenylamino)-6-[3-(7-oxa-2-azaspiro[3.5]-nonane-2-yl)-propoxy]-7-methoxyquinazoline]
10 to 100 nM | COc1cc2ncnc(Nc3cc(Cl)ccc3F)c2cc1OCCCN1CCC2(CCN(C(C)=O)C2)C1 (centres unmarked) [Example 19, 4-(5′-chloro-2′-fluorophenylamino)-6-[3-(7-acetyl-2,7-diazaspiro[4.4]-nonane-2-yl)-propoxy]-7-methoxyquinazoline]
10 to 100 nM | COc1cc2ncnc(Nc3cc(Cl)ccc3F)c2cc1OCCCN1CCC2(CC1)CNC(=O)C2 [Example 21, 4-(5′-chloro-2′-fluorophenylamino)-6-[3-(2,8-diazaspiro[4.5]decyl-3-ketone-8-yl)-propoxy]-7-methoxyquinazoline]
10 to 100 nM | COc1cc2ncnc(Nc3cc(Cl)ccc3F)c2cc1OCCCN1CCC2(CCNC2=O)C1 (centres unmarked) [Example 22, 4-(5′-chloro-2′-fluorophenylamino)-6-[3-(2,7-diazaspiro[4.4]nonane-1-ketone-7-yl)-propoxy]-7-methoxyquinazoline]
10 to 100 nM | COc1cc2ncnc(Nc3cc(Cl)ccc3F)c2cc1OCCCN1CCC2(CCN(C)C2=O)C1 (centres unmarked) [Example 23, 4-(5′-chloro-2′-fluorophenylamino)-6-[3-(2-methyl-2,7-diazaspiro[4.4]nonane-1-ketone-7-yl)-propoxy]-7-methoxyquinazoline]
10 to 100 nM | COc1cc2ncnc(Nc3cc(Cl)ccc3F)c2cc1OCCCN1CCC2(CC1)CC(=O)N(C)C2 [Example 24, 4-(5′-chloro-2′-fluorophenylamino)-6-[3-(2-methyl-2,8-diazaspiro[4.5]decane-3-ketone-8-yl)-propoxy]-7-methoxyquinazoline]
10 to 100 nM | COc1cc2ncnc(Nc3cc(Cl)ccc3F)c2cc1OCCCN1CCC2(CCC(=O)N2)CC1 [Example 25, 4-(5′-chloro-2′-fluorophenylamino)-6-[3-(1,8-diazaspiro[4.5]decane-2-ketone-8-yl)-propoxy]-7-methoxyquinazoline]
10 to 100 nM | COc1cc2ncnc(Nc3cc(Cl)ccc3F)c2cc1OCCCN1CCC2(CC1)CCN(C)C2=O [Example 26, 4-(5′-chloro-2′-fluorophenylamino)-6-[3-(2-methyl-2,8-diazaspiro[4.5]decane-1-ketone-8-yl)-propoxy]-7-methoxyquinazoline]
10 to 100 nM | COc1cc2ncnc(Nc3cc(Cl)ccc3F)c2cc1OCCCN1CC2(CNC(=O)C2)C1 [Example 27]
10 to 100 nM | COc1cc2ncnc(Nc3cccc(Cl)c3F)c2cc1OCCCN1CCC2(COC2)C1 [Example 28, 4-(3′-chloro-2′-fluorophenylamino)-6-[3-(2-oxa-6-azaspiro[3.4]octane-6-yl)-propoxy]-7-methoxyquinazoline]
10 to 100 nM | COc1cc2ncnc(Nc3cccc(Cl)c3F)c2cc1OCCCN1CCC2(CCNC2=O)C1 (centres unmarked) [Example 29, 4-(3′-chloro-2′-fluorophenylamino)-6-[3-(2,7-diazaspiro[4.4]nonane-1-ketone-7-yl)-propoxy]-7-methoxyquinazoline]
10 to 100 nM | COc1cc2ncnc(Nc3cccc(Cl)c3F)c2cc1OCCCN1CCC2(CCN(C)C2=O)C1 (centres unmarked) [Example 30, 4-(3′-chloro-2′-fluorophenylamino)-6-[3-(2-methyl-2,7-diazaspiro[4.4]nonane-1-ketone-7-yl)-propoxy]-7-methoxyquinazoline]
10 to 100 nM | COc1cc2ncnc(Nc3cccc(Cl)c3F)c2cc1OCCCN1CCC2(CC1)CC(=O)N(C)C2 [Example 31, 4-(3′-chloro-2′-fluorophenylamino)-6-[3-(2-methyl-2,8-diazaspiro[4.5]decane-3-ketone-8-yl)-propoxy]-7-methoxyquinazoline]
10 to 100 nM | COc1cc2ncnc(Nc3cccc(Cl)c3F)c2cc1OCCCN1CCC2(CCC(=O)N2)CC1 [Example 32, 4-(3′-chloro-2′-fluorophenylamino)-6-[3-(1,8-diazaspiro[4.5]decane-2-ketone-8-yl)-propoxy]-7-methoxyquinazoline]
10 to 100 nM | COc1cc2ncnc(Nc3cccc(Cl)c3F)c2cc1OCCCN1CC2(CNC(=O)C2)C1 [Example 33]
0.1 to 10 nM | COc1cc2ncnc(Nc3cccc(Cl)c3F)c2cc1OCCCN1CCC2(CC1)CNC(=O)O2 [Example 34, 4-(3′-chloro-2′-fluorophenylamino)-6-[3-(1-oxa-3,8-diazaspiro[4.5]decane-2-ketone-8-yl)-propoxy]-7-methoxyquinazoline]
0.1 to 10 nM | COc1cc2ncnc(Nc3cccc(Cl)c3F)c2cc1OCCCN1CCC2(C1)CN(C)C(=O)O2 (centres unmarked) [Example 35, 4-(3′-chloro-2′-fluorophenylamino)-6-[3-(3-methyl-1-oxa-3,7-diazaspiro[4.4]nonane-2-ketone-7-yl)-propoxy]-7-methoxycquinazoline]
0.1 to 10 nM | COc1cc2ncnc(Nc3cccc(Cl)c3F)c2cc1OCCCN1CC2(CNC(=O)O2)C1 [Example 36, 4-(3′-chloro-2′-fluorophenylamino)-6-[3-(5-oxa-2,7-diazaspiro[3.4]octane-6-ketone-2-yl)-propoxy]-7-methoxyquinazoline]
0.1 to 10 nM | COc1cc2ncnc(Nc3cccc(Cl)c3F)c2cc1OCCCN1CC2(C1)CN(C)C(=O)O2 [Example 37, 4-(3′-chloro-2′-fluorophenylamino)-6-[3-(7-methyl-5-oxa-2,7-diazaspiro[3.4]octane-6-ketone-2-yl)-propoxy]-7-methoxyquinazoline]
10 to 100 nM | C#Cc1cccc(Nc2ncnc3cc(OC)c(OCCCN4CC5(COC5)C4)cc23)c1 [Example 38, 4-(3′-ethynylphenylamino)-6-[3-(2-oxa-6-azaspiro[3.3]heptane-6-yl)-propoxy]-7-methoxyquinazoline]
